Data on ten molecules can be found in ChEMBL document CHEMBL3880415, “Spiro (Piperidine-4,2''-Pyrrolidine)-1-(3,5-Trifluoromethyl Phenyl) Methylcarboxamides As NK1 Tachikynin Receptor Antagonists” (2011).

This test addresses Substance-P receptor (Homo sapiens, UniProt P25103). Kind of test: Antagonist at human NK1 receptor expressed in recombinant BacMam virus infected human U2OS cells assessed as inhibition of substance P-induced intracellular calcium release preincubated for 30 mins followed by substance P addition by Fluo-4 calcium dye-based FLIPR assay. It is filed as functional, cell-based. On the technique in general: Calcium assays in cells follow changes in intracellular calcium, usually with a dye or a luminescent sensor.

A value given as a limit tells only on which side of the number the result lay.

Chain of Substance-P receptor (P25103 whole entry): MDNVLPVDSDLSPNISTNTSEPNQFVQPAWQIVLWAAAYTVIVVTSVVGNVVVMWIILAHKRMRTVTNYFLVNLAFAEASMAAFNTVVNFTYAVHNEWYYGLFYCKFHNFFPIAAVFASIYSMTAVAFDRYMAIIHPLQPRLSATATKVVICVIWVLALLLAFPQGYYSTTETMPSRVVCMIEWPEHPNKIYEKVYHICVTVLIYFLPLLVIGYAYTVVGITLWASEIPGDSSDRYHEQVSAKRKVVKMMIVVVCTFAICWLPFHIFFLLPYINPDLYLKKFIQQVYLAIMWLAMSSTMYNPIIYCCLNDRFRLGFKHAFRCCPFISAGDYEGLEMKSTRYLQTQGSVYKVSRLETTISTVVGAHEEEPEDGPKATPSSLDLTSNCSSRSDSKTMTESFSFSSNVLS

In general, pKi refers to −log10 of the Ki, conventionally taken in molar units. Turning to `Cc1cc(F)ccc1[C@H]1C[C@@]2(CCC(C(N)=O)N2)CCN1C(=O)N(C)[C@H](C)c1cc(C(F)(F)F)cc(C(F)(F)F)c1` (stereo not given in full), where the note is “u2os”, the pKi is listed as over 9.
Broadly, the Ki is the equilibrium dissociation constant of an inhibitor or competing ligand from its target. Regarding `Cc1cc(F)ccc1[C@H]1C[C@]2(CC[C@H](C(N)=O)N2)CCN1C(=O)N(C)[C@H](C)c1cc(C(F)(F)F)cc(C(F)(F)F)c1`, the Ki is under 1 nM.
The same measure, in the same setting: to `Cc1cc(F)ccc1[C@H]1C[C@@]2(CCN1C(=O)N(C)[C@H](C)c1cc(C(F)(F)F)cc(C(F)(F)F)c1)CC(C(=O)O)CN2` (stereo not given in full) belongs under 1 nM.
The same measure, in the same setting: the figure for `Cc1cc(F)ccc1[C@H]1C[C@]2(CC[C@@H](C(N)=O)N2)CCN1C(=O)N(C)Cc1cc(C(F)(F)F)cc(C(F)(F)F)c1` is under 1 nM; for `Cc1cc(F)ccc1[C@H]1C[C@]2(CC[C@H](C(N)=O)N2)CCN1C(=O)N(C)[C@@H](C)c1cc(C(F)(F)F)cc(C(F)(F)F)c1` it is under 1 nM.
`Cc1cc(F)ccc1[C@H]1C[C@@]2(CCN1C(=O)N(C)[C@H](C)c1cc(C(F)(F)F)cc(C(F)(F)F)c1)NCC[C@@H]2C(=O)O`: the Ki is under 1 nM.
The same measure, in the same setting: to `Cc1cc(F)ccc1[C@H]1C[C@]2(CCCN2)CCN1C(=O)N(C)[C@H](C)c1cc(C(F)(F)F)cc(C(F)(F)F)c1` belongs under 1 nM; to `Cc1cc(F)ccc1[C@H]1C[C@]2(CC[C@@H](C(N)=O)N2)CCN1C(=O)N(C)[C@H](C)c1cc(C(F)(F)F)cc(C(F)(F)F)c1`, under 1 nM.
`Cc1cc(F)ccc1[C@H]1C[C@]2(CC[C@@H](C(N)=O)N2)CCN1C(=O)N(C)[C@@H](C)c1cc(C(F)(F)F)cc(C(F)(F)F)c1`: the Ki is under 1 nM.
On the same count and under the same terms, to `Cc1cc(F)ccc1[C@H]1C[C@]2(CC[C@H](C(N)=O)N2)CCN1C(=O)N(C)Cc1cc(C(F)(F)F)cc(C(F)(F)F)c1` belongs under 1 nM.
